# Experimental data from patent US9765056B2, “Indole and pyrrole compounds, a process for their preparation and pharmaceutical compositions containing them” (LES LABORATOIRES SERVIER, priority 2013, dated 2017).
# Where a name gives a salt, the structure may show the parent alone.
# How the values were obtained:
# Bcl-2 protein = Bcl-2 protein (histag-Bcl-2, UniProtKB P10415) (Homo sapiens (Human), UniProt P10415); assay: Inhibition of Bcl-2 by the fluorescence polarisation technique; format: binding; conditions: fluorescence polarisation test; method A, or method B where underlined (underlining not visible); read-out: IC50 (nM) Bcl-2 FP
# Excerpt: Inhibition of Bcl-2 by the fluorescence polarisation technique
# [1] = test system: RS4;11 leukaemia tumour line; assay: In vitro cytotoxicity, Microculture Tetrazolium Assay (MTT); format: cell-based; conditions: RS4;11 cells, 48 hours exposure
# Experimental: The cytotoxicity studies were carried out on the RS4;11 leukaemia tumour line.
# The cells are distributed onto microplates and exposed to the test compounds for 48 hours. The cell viability is then quantified by a colorimetric assay, the Microculture Tetrazolium Assay (Cancer Res., 1987, 47, 939-942).
# Chain of Bcl-2 protein (P10415 whole entry): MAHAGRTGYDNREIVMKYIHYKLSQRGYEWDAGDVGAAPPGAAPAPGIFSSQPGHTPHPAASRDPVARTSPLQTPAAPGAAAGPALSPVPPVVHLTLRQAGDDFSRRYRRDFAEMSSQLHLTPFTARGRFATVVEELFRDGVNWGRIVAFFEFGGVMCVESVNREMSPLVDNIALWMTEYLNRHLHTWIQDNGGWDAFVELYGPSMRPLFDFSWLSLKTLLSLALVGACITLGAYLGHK
Compound,IC50 (Bcl-2 protein) [nM],IC50 ([1]; Homo sapiens) [nM],IC50 [1] [nM]
"Cc1cc(C(=O)N(c2ccccc2)c2ccc(O)cc2)cn1-c1cc(Br)ccc1C(=O)N1Cc2ccccc2C[C@H]1CN1C[C@H]2CCC[C@H]2C1 [Example 38, 1-(5-Bromo-2-{[(3S)-3-[(3aR,6aS)-hexahydrocyclopenta[c]pyrrol-2(1H)-ylmethyl]-3,4-dihydroisoquinolin-2(1H)-yl]carbonyl}phenyl)-N-(4-hydroxyphenyl)-5-methyl-N-phenyl-1H-pyrrole-3-carboxamide]",238,1780,–
"CN(C)C[C@@H]1Cc2ccccc2CN1C(=O)c1cc2c(cc1-n1cc(C(=O)N(c3ccccc3)c3ccc(O)cc3)c3ccccc31)OCO2 [Example 180, 1-{6-[(3S)-3-[(Dimethylamino)methyl]-1,2,3,4-tetrahydroisoquinoline-2-carbonyl]-2H-1,3-benzodioxol-5-yl}-N-(4-hydroxyphenyl)-N-phenyl-1H-indole-3-carboxamide hydrochloride]",11,210,–
"Cc1cc(C(=O)N(c2ccc(O)cc2)c2ccc3c(ccn3C)c2)cn1-c1cc2c(cc1C(=O)N1Cc3ccccc3C[C@H]1CN1CCOCC1)CCC2 [Example 117, N-(4-Hydroxyphenyl)-5-methyl-N-(1-methyl-1H-indol-5-yl)-1-(6-{[(3S)-3-(morpholin-4-ylmethyl)-3,4-dihydroisoquinolin-2(1H)-yl]carbonyl}-2,3-dihydro-1H-inden-5-yl)-1H-pyrrole-3-carboxamide hydrochloride]",7.6,193,–
"Cc1cc(C(=O)N(c2ccccc2)c2ccc(O)cc2)cn1-c1cc(Br)ccc1C(=O)N1Cc2ccccc2C[C@H]1CN1CCN(C)CC1 [Example 22, 1-(5-Bromo-2-{[(3S)-3-[(4-methylpiperazin-1-yl)methyl]-3,4-dihydroisoquinolin-2(1H)-yl]carbonyl}phenyl)-N-(4-hydroxyphenyl)-5-methyl-N-phenyl-1H-pyrrole-3-carboxamide]",10.7,142,–
"Cc1cc(C(=O)N(c2ccccc2)c2ccc(O)cc2)cn1-c1cc(Br)c(Br)cc1C(=O)N1Cc2ccccc2C[C@H]1CN1CCN(C)CC1 [Example 16, 1-(4,5-Dibromo-2-{[(3S)-3-[(4-methylpiperazin-1-yl)methyl]-3,4-dihydroisoquinolin-2(1H)-yl]carbonyl}phenyl)-N-(4-hydroxyphenyl)-5-methyl-N-phenyl-1H-pyrrole-3-carboxamide]",29.6,656,–
"Cc1cc(C(=O)N(c2ccccc2)c2ccc(O)cc2)cn1-c1ccc(OC(F)(F)F)cc1C(=O)N1Cc2ccccc2C[C@H]1CN1CCN(C)CC1 [Example 19, N-(4-Hydroxyphenyl)-5-methyl-1-[2-{[(3S)-3-[(4-methylpiperazin-1-yl)methyl]-3,4-dihydroisoquinolin-2(1H)-yl]carbonyl}-4-(trifluoromethoxy)phenyl]-N-phenyl-1H-pyrrole-3-carboxamide]",245,2360,–
"Cc1cc(C(=O)N(c2ccc(O)cc2)c2ccc(F)cc2)cn1-c1cc2c(cc1C(=O)N1Cc3ccccc3C[C@H]1CN1CCN(C)CC1)OCO2 [Example 84, N-(4-Fluorophenyl)-N-(4-hydroxyphenyl)-5-methyl-1-(6-{[(3S)-3-[(4-methylpiperazin-1-yl)methyl]-3,4-dihydroisoquinolin-2(1H)-yl]carbonyl}-1,3-benzodioxol-5-yl)-1H-pyrrole-3-carboxamide]",6.7,146,–
"CC(=O)Oc1ccc(N(C(=O)c2cn(-c3cc4c(cc3C(=O)N3Cc5ccccc5C[C@H]3CN3CCN(C)CC3)OCO4)c3ccccc23)c2ccc(C)cc2)cc1 [Example 60, 4-[(4-Methylphenyl){[1-(6-{[(3S)-3-[(4-methylpiperazin-1-yl)methyl]-3,4-dihydroisoquinolin-2(1H)-yl]carbonyl}-1,3-benzodioxol-5-yl)-1H-indol-3-yl]-carbonyl}amino]phenyl acetate]",206,–,89.5

# The next lines start with results.
IC50 (Bcl-2 protein) [nM],Compound,IC50 ([1]; Homo sapiens) [nM],IC50 [1] [nM]
6.9,"COc1cc(-n2cc(C(=O)N(c3ccccc3)c3ccccc3)c3ccccc32)c(C(=O)N2Cc3ccccc3C[C@H]2CN2CCN(C)CC2)cc1O [Example 181, 1-{4-Hydroxy-5-methoxy-2-[(3S)-3-[(4-methylpiperazin-1-yl)methyl]-1,2,3,4-tetrahydroisoquinoline-2-carbonyl]phenyl}-N,N-diphenyl-1H-indole-3-carboxamide dihydrochloride]",205,–
8.4,"Cc1cc(C(=O)N(c2ccc(O)cc2)c2ccc3[nH]ccc3c2)cn1-c1cc(Br)ccc1C(=O)N1Cc2ccccc2C[C@H]1CN1CCN(C)CC1 [Example 46, 1-(5-Bromo-2-{[(3S)-3-[(4-methylpiperazin-1-yl)methyl]-3,4-dihydroisoquinolin-2(1H)-yl]carbonyl}phenyl)-N-(4-hydroxyphenyl)-N-(1H-indol-5-yl)-5-methyl-1H-pyrrole-3-carboxamide]",93.4,–
44.6,"Cc1cc(C(=O)N(c2ccccc2)c2ccc(O)cc2)cn1-c1cccc(Cl)c1C(=O)N1Cc2ccccc2C[C@H]1CN(C)C [Example 18, 1-(3-Chloro-2-{[(3S)-3-[(dimethylamino)methyl]-3,4-dihydroisoquinolin-2(1H)-yl]carbonyl}phenyl)-N-(4-hydroxyphenyl)-5-methyl-N-phenyl-1H-pyrrole-3-carboxamide]",1130,–
7.7,"CN1CCN(C[C@@H]2Cc3ccccc3CN2C(=O)c2cc3c(cc2-n2cc(C(=O)N(c4ccccc4)c4ccc(O)c(F)c4)c4ccccc42)OCO3)CC1 [Example 34, N-(3-Fluoro-4-hydroxyphenyl)-1-(6-{[(3S)-3-[(4-methylpiperazin-1-yl)methyl]-3,4-dihydroisoquinolin-2(1H)-yl]carbonyl}-1,3-benzodioxol-5-yl)-N-phenyl-1H-indole-3-carboxamide]",133,–
146,"Cc1cc(C(=O)N(c2ccccc2)c2ccc3[nH]ccc3c2)cn1-c1ccccc1C(=O)N1Cc2ccccc2C[C@H]1CN(C)C [Example 10, 1-(2-{[(3S)-3-[(Dimethylamino)methyl]-3,4-dihydroisoquinolin-2(1H)-yl]carbonyl}phenyl)-N-(1H-indol-5-yl)-5-methyl-N-phenyl-1H-pyrrole-3-carboxamide]",2220,–
71.8,"O=C(c1cn(-c2cc(Cl)ccc2C(=O)N2Cc3ccccc3C[C@H]2CN2CCCCC2)c2ccccc12)N(c1ccccc1)c1ccc(O)cc1 [Example 171, 1-{5-Chloro-2-[(3S)-3-(piperidin-1-ylmethyl)-1,2,3,4-tetrahydroisoquinoline-2-carbonyl}phenyl]-N-(4-hydroxyphenyl)-N-phenyl-1H-indole-3-carboxamide]",1050,–
71.5,"CN(C)C[C@@H]1Cc2ccccc2CN1C(=O)c1ccccc1-n1cc(C(=O)N(c2ccccc2)c2ccc(O)cc2)c2ccccc21 [Example 143, 1-{2-[(3S)-3-[(Dimethylamino)methyl]-1,2,3,4-tetrahydroisoquinoline-2-carbonyl]phenyl}-N-(4-hydroxyphenyl)-N-phenyl-1H-indole-3-carboxamide]",533,–
5.6,"COc1cc(-n2cc(C(=O)N(c3ccccc3)c3ccc(C)cc3)c3ccccc32)c(C(=O)N2Cc3ccccc3C[C@H]2CN2CCN(C)CC2)cc1O [Example 193, 1-{4-Hydroxy-5-methoxy-2-[(3S)-3-[(4-methylpiperazin-1-yl)methyl]-1,2,3,4-tetrahydroisoquinoline-2-carbonyl]phenyl}-N-(4-methylphenyl)-N-phenyl-1H-indole-3-carboxamide]",499,–
